# Measured values published in patent US20240398899A1 (priority 2021, published 2024).
# What was measured:
# Format in all cases: cell-based, human
# [1] = tested on: SH-SY5Y neuronal cells; assay: Sub (G0/G1) cell population by PI cell cycle assay against MPP+ iodide damage; settings: MPP + Iodide (2 mM); for % Decrease in Apoptotic cells (wrt MPP + iodide): SubG0/G1
# Description: After incubation as in Example 2a and 2b, cells were harvested by trypsinization and processed for Cell cycle assay as follows: Cell cycle reagent contains PI stain, which stains DNA of cells in different phases of cell cycle; Sub (G0/G1), G1, S, G2 and M. Cells in Sub (G0/G1) phase correspond to apoptotic cells.
# Cells were gently harvested into pre-labelled centrifuge tubes and centrifuged at 450 g for 5 min, RT (low brake). The supernatants were removed carefully and discarded. 1 ml of 1×PBS was added to the pellet and resuspended gently to make homogenous suspension. Cells were centrifuged at 450 g for 5 min, RT (low brake). The supernatant was carefully removed leaving behind approximately 100 μl of PBS. Cells were resuspended gently yet thoroughly in residual PBS. The cells were fixed by adding Ice-cold 70% ethanol (100 μl) added dropwise into cells in each tube while vortexing at low speed Cells were stored at 4° C. for 24 h prior to staining.
# Ethanol fixed cells were centrifuged at 450 g for 5 min, RT (low brake) the supernatant was carefully removed (not to touch the pellet) and discarded. 1 ml of 1×PBS was added into pellet and resuspended gently. Cells were incubated for 1 minute at RT. Cells were centrifuged at 450 g for 5 min, RT (low brake). (washing step) The supernatant was removed carefully leaving behind approx. 20 μl-50 μl of PBS. 200 μl of Cell Cycle reagent was added into each tube. Cells were resuspended gently and mixed. Cells were incubated for 30 min, RT, Dark. The stained samples were transferred into 96-well plates and acquired on flow cytometer (Guava technologies). Percentage of cells in Sub (G0/G1) phase were determined.
# Percent inhibition in apoptotic cells=[(% Sub(G0/G1)cells in MPP+iodide alone) −(% Sub(G0/G1)cells in SEQ ID NO:1+MPP+iodide)/% Sub(G0/G1)cells in MPP+iodide alone]*100
# [2] = tested on: Serotonin; assay: Parkinson biomarker multiplex analysis/ELISA, MPP+ damaged SH-SY5Y; settings: MPP + Iodide (2 mM)
# Description: (§1) After overnight incubation as in the previous examples, cells were treated with recombinant lectin protein having SEQ ID NO: 1 at different concentrations ranging from 0.001 μg/ml-1 μg/ml for 24 h for Parkinson disease and 0.01 μg/ml-25 μg/ml for 24 h for Alzheimer's disease. • Parkinson Disease: After 24 h of pre-treatment with recombinant lectin protein having SEQ ID NO: 1, cells were exposed (MPP+) for another 24 h. Cells treated with MPP+Iodide were included as Control. […] The cells treated with Galantamine were included as positive Control.
# (§2) The levels of markers were determined by multiplex analysis as: Cell culture supernatants were diluted (1:2) with Calibrator Diluent. 50 μl of standard or sample was added per well. 50 μl of the microparticle cocktail was added to each well of the microplate and covered with a foil plate sealer. The plate was incubated for 2 hours at room temperature on a horizontal orbital microplate shaker. The plate was washed using a magnetic device designed to accommodate a microplate. Washing was done by applying the magnet to the bottom of the microplate, allowing 1 minute before removing the liquid, filling each well with wash buffer (100 μl) and allowing 1 minute before removing the liquid again. 50 μl of diluted Biotin-Antibody Cocktail was added to each well. Covered the plate with a foil plate sealer and incubated for 1 hour at room temperature on the shaker. Repeated the wash step. 50 μl of diluted Streptavidin-PE was added to each well. The plate was securely covered with a foil plate sealer and incubated for 30 minutes at room temperature on the shaker. Repeated the wash step. The microparticles were resuspended by adding 100 μl of Wash Buffer to each well. The plate was incubated for 2 minutes on the shaker and read within 90 minutes using Magpix® multiplex machine. Levels of biomarkers for Parkinson's and Alzheimer's disease were estimated using Magpix® multiplex machine.
# (§3) For Parkinson's the percent modulation in each sample was determined as follows:
# (§4) [{Concentration of biomarkers(pg/ml) in SEQ ID NO:1+MPP+Iodide treated cells)−Concentration of biomarkers(pg/ml) in Control cells(MPP+Iodide alone treated)}/Concentration of biomarkers(pg/ml) in Control cells(MPP+Iodide alone treated)]*100
# [3] = tested on: Park7/DJ-1; assay: as above; settings: MPP + Iodide (2 mM)
# Description: as §1, §2, §3, §4
# [4] = tested on: ICAM1/CD54; assay: as above; settings: MPP + Iodide (2 mM)
# Description: as §1, §2, §3, §4
# [5] = tested on: Dopamine; assay: as above; settings: MPP + Iodide (2 mM)
# Description: as §1, §2, §3, §4
# [6] = tested on: Calbindin D; assay: as above; settings: MPP + Iodide (2 mM)
# Description: as §1, §2, §3, §4
# [7] = tested on: S100b; assay: as above; settings: MPP + Iodide (2 mM)
# Description: as §1, §2, §3, §4
smiles,measurement,setting,value
"C#CCN(C)[C@H](C)Cc1ccccc1 [Deprenyl, reference compound]",% Apoptotic cells (SubG0/G1),[1]; 10 μM,2.9%
same,% Decrease in Apoptotic cells (wrt MPP + iodide),[1]; 10 μM,12.8%
same,% Apoptotic cells (SubG0/G1),[1]; 25 μM,2.4%
same,% Decrease in Apoptotic cells (wrt MPP + iodide),[1]; 25 μM,28.3%
same,% Apoptotic cells (SubG0/G1),[1]; 100 μM,2%
same,% Decrease in Apoptotic cells (wrt MPP + iodide),[1]; 100 μM,42%
same,% Change of Biomarkers markers (with respect to Control) Serotonin,[2]; 10 μM,9.1%
same,% Change of Biomarkers markers (with respect to Control) Serotonin,[2]; 50 μM,33%
same,% Change of Biomarkers markers (with respect to Control) Serotonin,[2]; 100 μM,17.1%
same,% Change of Biomarkers markers (with respect to Control) Park7/DJ-1,[3]; 10 μM,−6.8%
same,% Change of Biomarkers markers (with respect to Control) Park7/DJ-1,[3]; 50 μM,−7.9%
same,% Change of Biomarkers markers (with respect to Control) Park7/DJ-1,[3]; 100 μM,−9.2%
same,% Change of Biomarkers markers (with respect to Control) ICAM1/CD54,[4]; 10 μM,12.9%
same,% Change of Biomarkers markers (with respect to Control) ICAM1/CD54,[4]; 50 μM,−23.7%
same,% Change of Biomarkers markers (with respect to Control) ICAM1/CD54,[4]; 100 μM,−37%
same,% Change of Biomarkers markers (with respect to Control) Dopamine,[5]; 10 μM,21.2%
same,% Change of Biomarkers markers (with respect to Control) Dopamine,[5]; 50 μM,37.7%
same,% Change of Biomarkers markers (with respect to Control) Dopamine,[5]; 100 μM,−47.2%
same,% Change of Biomarkers markers (with respect to Control) Calbindin D,[6]; 10 μM,5%
same,% Change of Biomarkers markers (with respect to Control) Calbindin D,[6]; 50 μM,0%
same,% Change of Biomarkers markers (with respect to Control) Calbindin D,[6]; 100 μM,3.3%
same,% Change of Biomarkers markers (with respect to Control) S100b,[7]; 10 μM,−6.7%
same,% Change of Biomarkers markers (with respect to Control) S100b,[7]; 50 μM,−6.5%
same,% Change of Biomarkers markers (with respect to Control) S100b,[7]; 100 μM,−6.5%
